From patent publication US20090264433A1, “Compounds, Compositions and Methods Comprising Triazine Derivatives” (Institute for OneWorld Health, priority 2008, published 2009)

The compounds below were run against T1, CFTR channel in human colonic T84 cells (Homo sapiens, UniProt P13569) (assay: T84 assay (FLIPR membrane potential dye, forskolin/IBMX-stimulated CFTR)). Conditions: average of at least 2 runs unless annotated n = 1.
T1 construct: results in the phosphorylation and opening of CFTR anion channels; host or cells: human colonic T84 cells
T1 sequence (P13569 whole entry): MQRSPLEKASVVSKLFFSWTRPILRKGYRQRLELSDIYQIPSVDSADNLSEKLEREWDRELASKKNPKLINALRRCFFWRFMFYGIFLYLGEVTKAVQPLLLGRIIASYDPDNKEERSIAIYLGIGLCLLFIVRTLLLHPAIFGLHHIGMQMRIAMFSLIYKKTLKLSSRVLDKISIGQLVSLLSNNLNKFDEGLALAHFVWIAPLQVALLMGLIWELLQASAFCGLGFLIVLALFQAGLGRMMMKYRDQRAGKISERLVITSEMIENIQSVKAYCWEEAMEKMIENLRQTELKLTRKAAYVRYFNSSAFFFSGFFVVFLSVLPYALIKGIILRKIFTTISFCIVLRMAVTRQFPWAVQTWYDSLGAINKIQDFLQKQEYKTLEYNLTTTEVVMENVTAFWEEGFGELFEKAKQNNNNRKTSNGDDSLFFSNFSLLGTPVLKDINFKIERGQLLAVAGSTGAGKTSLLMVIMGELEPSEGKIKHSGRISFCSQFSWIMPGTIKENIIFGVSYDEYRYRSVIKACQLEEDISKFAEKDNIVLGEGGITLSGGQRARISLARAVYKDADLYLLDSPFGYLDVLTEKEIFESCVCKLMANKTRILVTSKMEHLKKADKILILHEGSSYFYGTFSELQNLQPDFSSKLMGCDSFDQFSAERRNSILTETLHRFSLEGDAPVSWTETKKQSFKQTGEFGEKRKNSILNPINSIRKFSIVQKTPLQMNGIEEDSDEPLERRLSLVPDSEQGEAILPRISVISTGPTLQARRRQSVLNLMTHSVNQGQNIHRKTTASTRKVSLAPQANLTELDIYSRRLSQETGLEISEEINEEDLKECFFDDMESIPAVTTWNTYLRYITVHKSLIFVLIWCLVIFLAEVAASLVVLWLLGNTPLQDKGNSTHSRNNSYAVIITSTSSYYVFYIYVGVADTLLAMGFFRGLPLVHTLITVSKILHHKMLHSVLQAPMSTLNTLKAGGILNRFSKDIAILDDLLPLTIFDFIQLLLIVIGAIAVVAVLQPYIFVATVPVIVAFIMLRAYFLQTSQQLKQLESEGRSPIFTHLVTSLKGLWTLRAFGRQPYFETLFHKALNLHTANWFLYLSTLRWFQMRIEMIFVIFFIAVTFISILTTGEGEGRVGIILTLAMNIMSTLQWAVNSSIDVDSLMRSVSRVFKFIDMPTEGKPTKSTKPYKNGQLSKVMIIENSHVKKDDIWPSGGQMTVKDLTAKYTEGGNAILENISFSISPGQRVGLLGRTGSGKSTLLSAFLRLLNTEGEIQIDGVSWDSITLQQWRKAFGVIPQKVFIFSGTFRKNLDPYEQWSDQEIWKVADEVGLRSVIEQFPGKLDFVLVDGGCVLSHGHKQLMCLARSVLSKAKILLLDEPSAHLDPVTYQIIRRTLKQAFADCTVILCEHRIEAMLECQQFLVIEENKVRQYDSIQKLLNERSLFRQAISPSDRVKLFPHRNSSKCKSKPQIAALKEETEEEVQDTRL
Format: cell-based
Experimental: (§1) For example, Human colonic T84 cells can be acquired from the European Collection of Cell Cultures (ECACC) and grown in standard culture conditions as described by the supplier. On the day before assay 25,000 T84 cells per well are plated into standard black walled, clear bottom 384-well assay plates in standard growth medium consisting of DMEM:F12 with 10% FBS and incubated overnight. On the day of the assay the plates are washed using a standard assay buffer (HBSS with 10 mM Hepes) and incubated for 15 minutes in serum free cell culture medium before the addition of a commercially available membrane potential sensitive fluorescent dye (FLIPR Red membrane potential dye, Molecular Devices Corporation). T84 cells are incubated with the FLIPR Red membrane potential dye for 45 minutes in the presence and absence of test compound before being transferred to a commercially available fluorescence imaging plate reader (FLIPR384, Molecular Devices Corporation). Fluorescence levels are monitored continuously every second for 150 seconds; after an initial 10 second baseline, CFTR channel activity is stimulated through the addition of 10 μM forskolin in the presence of 100 μM of the phosphodiesterase inhibitor iso-butyl-methylxanthine (IBMX). Addition of the forskolin leads to the activation of intracellular adenylyl cylase 1, elevating cAMP levels and results in the phosphorylation and opening of CFTR anion channels. CFTR channel opening causes chloride ion efflux and subsequent depolarization of the cells, which is measured by an increase in fluorescence. CFTR inhibitor compounds prevent cell depolarization and the associated increase in fluorescence.
as §1, with “Human colonic” for “For example, Human colonic”, “T84 cells are acquired from” for “T84 cells can be acquired from”, “(ECACC) and are grown in” for “(ECACC) and grown in”
`CN(CCOc1ncc(-c2cc(Cl)c(O)c(Cl)c2)nn1)Cc1ccccc1` [Compound 138, 4-(3-(2-(benzyl(methyl)amino)ethoxy)-1,2,4-triazin-6-yl)-2,6-dichlorophenol] gave an IC50 of 18.9 µM.
With `Oc1c(Br)cc(-c2cnc(COc3cccc(Cl)c3Cl)nn2)cc1Br` [Compound 30, 2,6-dibromo-4-(3-((2,3-dichlorophenoxy)methyl)-1,2,4-triazin-6-yl)phenol] the IC50 was 9.59 µM.
In the case of `Oc1c(Br)cc(-c2cnc(Cc3cccc4ccccc34)nn2)cc1Br` [Compound 130, 2,6-dibromo-4-(3-(naphthalen-1-ylmethyl)-1,2,4-triazin-6-yl)phenol], the IC50 is reported as 28.9 µM.
`Cc1ccc(Cl)c(OCc2ncc(-c3cc(Br)c(O)c(Br)c3)nn2)c1` [Compound 34, 2,6-dibromo-4-(3-((2-chloro-5-methylphenoxy)methyl)-1,2,4-triazin-6-yl)phenol] gave an IC50 of 11.6 µM.
`Cc1ccc(OCc2ncc(-c3cc(Cl)c(O)c(Cl)c3)nn2)c2c1CCC2` [Compound 41, 2,6-dichloro-4-(3-((7-methyl-2,3-dihydro-1H-inden-4-yloxy)methyl)-1,2,4-triazin-6-yl)phenol] showed an IC50 of 10.6 µM.
`O=Cc1ccc(COc2ncc(-c3cc(Cl)c(O)c(Cl)c3)nn2)cc1` [Compound 142, 4-((6-(3,5-dichloro-4-hydroxyphenyl)-1,2,4-triazin-3-yloxy)methyl)benzaldehyde] showed an IC50 of 10.7 µM.
`Cc1cc(Br)c(OCc2ncc(-c3cc(Br)c(O)c(Br)c3)nn2)c2c1CCC2` [Compound 46, 2,6-dibromo-4-(3-((5-bromo-7-methyl-2,3-dihydro-1H-inden-4-yloxy)methyl)-1,2,4-triazin-6-yl)phenol] gave an IC50 of 14.3 µM.
In the case of `CN(Cc1ccncc1)Cc1ccc(COc2ncc(-c3cc(Cl)c(O)c(Cl)c3)nn2)cc1` [Compound 175, 2,6-dichloro-4-(3-(4-((methyl(pyridin-4-ylmethyl)amino)methyl)benzyl-oxy)-1,2,4-triazin-6-yl)phenol], the IC50 is reported as 11.7 µM.
`COc1ccc(Cl)cc1COc1ncc(-c2cc(Br)c(O)c(Br)c2)nn1` [Compound 5, 2,6-dibromo-4-(3-(5-chloro-2-methoxybenzyloxy)-1,2,4-triazin-6-yl)phenol] showed an IC50 of 0.7 µM.
In the case of `CC(C)(C)c1ccc(CCOc2ncc(-c3cc(Br)c(O)c(Br)c3)nn2)cc1` [Compound 93, 2,6-dibromo-4-(3-(4-tert-butylphenethoxy)-1,2,4-triazin-6-yl)phenol], the IC50 is reported as 0.64 µM.
With `Cc1cc(Cl)ccc1COc1ncc(-c2cc(Br)c(O)c(Br)c2)nn1` [Compound 29, 2,6-dibromo-4-(3-(4-chloro-2-methylbenzyloxy)-1,2,4-triazin-6-yl)phenol] the IC50 was 1.35 µM.
`Oc1c(Br)cc(-c2cnc(OCc3cc(Cl)cc(Cl)c3)nn2)cc1Br` [Compound 26, 2,6-dibromo-4-(3-(3,5-dichlorobenzyloxy)-1,2,4-triazin-6-yl)phenol] showed an IC50 of 0.38 µM.
`CN(Cc1ccc(COc2ncc(-c3cc(Cl)c(O)c(Cl)c3)nn2)cc1)Cc1ccc(-c2cncnc2)cc1` [Compound 207, 2,6-dichloro-4-(3-(4-((methyl(4-(pyrimidin-5-yl)benzyl)amino)methyl)benzyl-oxy)-1,2,4-triazin-6-yl)phenol] showed an IC50 of 2.99 µM.
Compound `Oc1c(Br)cc(-c2cnc(OCc3ccccc3)nn2)cc1Br` [Compound 19, 4-(3-(benzyloxy)-1,2,4-triazin-6-yl)-2,6-dibromophenol] has an IC50 of 1.37 µM.
For `O=C(c1ccccc1Cl)N1CCN(Cc2ccc(COc3ncc(-c4cc(Cl)c(O)c(Cl)c4)nn3)cc2)CC1` [Compound 220, (2-chlorophenyl)(4-(4-((6-(3,5-dichloro-4-hydroxyphenyl)-1,2,4-triazin-3-yloxy)methyl)benzyl)piperazin1-yl)methanone], the IC50 was 1.89 µM.
Work on `Cc1cc(Cl)ccc1OCc1ncc(-c2cc(Br)c(O)c(Br)c2)nn1` [Compound 39, 2,6-dibromo-4-(3-((4-chloro-2-methylphenoxy)methyl)-1,2,4-triazin-6-yl)phenol] yielded an IC50 of 10.9 µM.
With `COc1ccc(CNc2ncc(-c3cc(Cl)c(O)c(Cl)c3)nn2)cc1` [Compound 132, 2,6-dichloro-4-(3-(4-methoxybenzylamino)-1,2,4-triazin-6-yl)phenol] the IC50 was 12.1 µM.
In the case of `Oc1c(Br)cc(-c2cnc(C(O)(c3ccccc3)c3ccccc3)nn2)cc1Br` [Compound 32, 2,6-dibromo-4-(3-(hydroxydiphenylmethyl)-1,2,4-triazin-6-yl)phenol], the IC50 is reported as 4.93 µM.
`Oc1c(Cl)cc(-c2cnc(OCc3ccc(CN4CCc5ccccc5C4c4ccncc4)cc3)nn2)cc1Cl` (stereo not shown) [Compound 193] showed an IC50 of 3.92 µM.
`CN(Cc1ccc(COc2ncc(-c3cc(Cl)c(O)c(Cl)c3)nn2)cc1)Cc1cccc(-c2ccncc2)c1` [Compound 177, 2,6-dichloro-4-(3-(4-((methyl(3-(pyridin-4-yl)benzyl)amino)methyl)benzyl-oxy)-1,2,4-triazin-6-yl)phenol] was tested, and the IC50 was 2.22 µM.
Compound `Oc1c(Cl)cc(-c2cnc(OCc3ccc(CNC(CN4CCOCC4)c4ccccc4)cc3)nn2)cc1Cl` (stereo not shown) [Compound 157, 2,6-dichloro-4-(3-(4-((2-morpholino-1-phenylethylamino)methyl)benzyloxy)-1,2,4-triazin-6-yl)phenol] has an IC50 of 2.27 µM.
Work on `Cc1ccc(CCOc2ncc(-c3cc(Br)c(O)c(Br)c3)nn2)cc1` [Compound 98, 2,6-dibromo-4-(3-(4-methylphenethoxy)-1,2,4-triazin-6-yl)phenol] yielded an IC50 of 0.3 µM.
`Oc1c(Br)cc(-c2cnc(OCCc3ccccc3)nn2)cc1Br` [Compound 96, 2,6-dibromo-4-(3-phenethoxy-1,2,4-triazin-6-yl)phenol] showed an IC50 of 0.47 µM.
`Oc1c(Br)cc(-c2cnc(C(O)(c3ccc(Cl)cc3)c3ccc(Cl)cc3)nn2)cc1Br` [Compound 100, 4-(3-(bis(4-chlorophenyl)(hydroxy)methyl)-1,2,4-triazin-6-yl)-2,6-dibromophenol] gave an IC50 of 7.77 µM.
`Oc1c(Br)cc(-c2cnc(COc3ccc(F)cc3F)nn2)cc1Br` [Compound 56, 2,6-dibromo-4-(3-((2,4-difluorophenoxy)methyl)-1,2,4-triazin-6-yl)phenol] showed an IC50 of 25.3 µM.
In the case of `Oc1c(Br)cc(-c2cnc(OCCc3ccc(Cl)cc3)nn2)cc1Br` [Compound 90, 2,6-dibromo-4-(3-(4-chlorophenethoxy)-1,2,4-triazin-6-yl)phenol], the IC50 is reported as 0.17 µM.
Work on `CN(C)CCCOc1cccc(CN(C)Cc2ccc(COc3ncc(-c4cc(Cl)c(O)c(Cl)c4)nn3)cc2)c1` [Compound 204, 2,6-dichloro-4-(3-(4-(((3-(3-(dimethylamino)propoxy)benzyl)(methyl)amino)methyl)benzyl-oxy)-1,2,4-triazin-6-yl)phenol] yielded an IC50 of 2.43 µM.
`Cc1ccc(C(C)C)c(OCc2ncc(-c3cc(Br)c(O)c(Br)c3)nn2)c1` [Compound 57, 2,6-dibromo-4-(3-((2-isopropyl-5-methylphenoxy)methyl)-1,2,4-triazin-6-yl)phenol] showed an IC50 of 26.8 µM.
With `O=C(c1ccccc1)N1CCN(Cc2ccc(COc3ncc(-c4cc(Cl)c(O)c(Cl)c4)nn3)cc2)CC1` [Compound 218, (4-(4-((6-(3,5-dichloro-4-hydroxyphenyl)-1,2,4-triazin-3-yloxy)methyl)benzyl)piperazin-1-yl)(phenyl)methanone] the IC50 was 3.8 µM.
`Oc1c(Br)cc(-c2cnc(OCc3cccc4ccccc34)nn2)cc1Br` [Compound 13, 2,6-dibromo-4-(3-(naphthalen-1-ylmethoxy)-1,2,4-triazin-6-yl)phenol] was tested, and the IC50 was 0.88 µM.
`Oc1c(Cl)cc(-c2cnc(OCc3cccc(OC(F)(F)F)c3)nn2)cc1Cl` [Compound 153, 2,6-dichloro-4-(3-(3-(trifluoromethoxy)benzyloxy)-1,2,4-triazin-6-yl)phenol] showed an IC50 of 2.17 µM.
In the case of `Oc1c(Cl)cc(-c2cnc(NCc3cccc(Cl)c3Cl)nn2)cc1Cl` [Compound 121, 2,6-Dichloro-4-(3-(2,3-dichlorobenzylamino)-1,2,4-triazin-6-yl)phenol], the IC50 is reported as 13.1 µM.
Compound `CN(C)c1cccc(COc2ncc(-c3cc(Cl)c(O)c(Cl)c3)nn2)c1` [Compound 119, 2,6-dichloro-4-(3-(3-(dimethylamino)benzyloxy)-1,2,4-triazin-6-yl)phenol] has an IC50 of 3.4 µM.
`Oc1c(Br)cc(-c2cnc(OCc3ccc(-c4ccccc4)cc3)nn2)cc1Br` [Compound 14, 4-(3-(biphenyl-4-ylmethoxy)-1,2,4-triazin-6-yl)-2,6-dibromophenol] gave an IC50 of 0.89 µM.
